Tests used:
Assay in all cases: relative viability (nuclei count vs DMSO), 5 days (fraction); higher = more cells survive
HARA = tested on: HARA
How it was run: (§1)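 A single step with final 0.05% Triton X-100, 1% formaldehyde and 1 ug/ml Hoechst fixed the cells and stained nuclei 5 days after treatment. Lung cancer cell lines in 1536-well plates had been treated by pin tool the day after seeding with one drug alone or a fixed anchor-drug dose plus five library-drug doses (not always all listed) in √10 steps, and nuclei were counted on 4× images. Relative viability is the ratio of nuclei in treated wells to nuclei in vehicle wells, taken as the median of duplicate plates.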

NCI-H2023 = tested on: NCI-H2023
How it was run: as §1

NCI-H3122 = tested on: NCI-H3122
How it was run: as §1

BEN = tested on: BEN
How it was run: as §1

NCI-H596 = tested on: NCI-H596
How it was run: as §1

NCI-H23 = tested on: NCI-H23
How it was run: as §1

HCC-44 = tested on: HCC-44
How it was run: as §1

NCI-H1395 = tested on: NCI-H1395
How it was run: as §1

LOU-NH91 = tested on: LOU-NH91
How it was run: as §1

201T = tested on: 201T
How it was run: as §1

NCI-H2347 = tested on: NCI-H2347
How it was run: as §1

NCI-H2087 = tested on: NCI-H2087
How it was run: as §1

NCI-H838 = tested on: NCI-H838
How it was run: as §1

NCI-H441 = tested on: NCI-H441
How it was run: as §1

EMC-BAC-2 = tested on: EMC-BAC-2
How it was run: as §1

NCI-H647 = tested on: NCI-H647
How it was run: as §1

NCI-H650 = tested on: NCI-H650
How it was run: as §1

LCLC-103H = tested on: LCLC-103H
How it was run: as §1

NCI-H2126 = tested on: NCI-H2126
How it was run: as §1

NCI-H1993 = tested on: NCI-H1993
How it was run: as §1

NCI-H727 = tested on: NCI-H727
How it was run: as §1

With `COc1nc(C)cnc1NS(=O)(=O)c1cccnc1-c1ccc(-c2nnco2)cc1` [Zibotentan] + C[C@]1(O)C[C@@H](c2nc(-c3ccc4ccc(-c5ccccc5)nc4c3)c3c(N)nccn32)C1 [Linsitinib] (partner 1 µM) the relative viability (HARA; first compound 0.08 µM) was 1.24, the relative viability (HARA; first compound 0.253 µM) was 0.945 and the relative viability (HARA; first compound 0.8 µM) was 0.955. The relative viability (HARA; first compound 2.53 µM) was 0.902, the relative viability (NCI-H2023; first compound 0.08 µM) was 0.57 and the relative viability (NCI-H2023; first compound 0.253 µM) was 0.544. For the same compound, the relative viability (NCI-H2023; first compound 0.8 µM) was 0.743, the relative viability (NCI-H2023; first compound 2.53 µM) was 0.654 and the relative viability (NCI-H3122; first compound 0.08 µM) was 0.983. For the same compound, the relative viability (NCI-H3122; first compound 0.253 µM) was 0.972, the relative viability (NCI-H3122; first compound 0.8 µM) was 1 and the relative viability (NCI-H3122; first compound 2.53 µM) was 0.963. The relative viability (BEN; first compound 0.08 µM) was 1.04, the relative viability (BEN; first compound 0.253 µM) was 0.773 and the relative viability (BEN; first compound 0.8 µM) was 0.958. It also gave a relative viability (BEN; first compound 2.53 µM) of 0.886, a relative viability (NCI-H596; first compound 0.08 µM) of 1.23 and a relative viability (NCI-H596; first compound 0.253 µM) of 1.08. For the same compound, the relative viability (NCI-H596; first compound 0.8 µM) was 1.03, the relative viability (NCI-H596; first compound 2.53 µM) was 1.11 and the relative viability (NCI-H23; first compound 0.08 µM) was 0.614. For the same compound, the relative viability (NCI-H23; first compound 0.253 µM) was 0.545, the relative viability (NCI-H23; first compound 0.8 µM) was 0.653 and the relative viability (NCI-H23; first compound 2.53 µM) was 0.477. For the same compound, the relative viability (HCC-44; first compound 0.08 µM) was 0.759, the relative viability (HCC-44; first compound 0.253 µM) was 0.614 and the relative viability (HCC-44; first compound 0.8 µM) was 0.747. It also gave a relative viability (HCC-44; first compound 2.53 µM) of 0.703, a relative viability (NCI-H1395; first compound 0.08 µM) of 1.39 and a relative viability (NCI-H1395; first compound 0.253 µM) of 1.07. The relative viability (NCI-H1395; first compound 0.8 µM) was 1.05, the relative viability (NCI-H1395; first compound 2.53 µM) was 1.08 and the relative viability (LOU-NH91; first compound 0.08 µM) was 0.94. It also gave a relative viability (LOU-NH91; first compound 0.253 µM) of 0.836, a relative viability (LOU-NH91; first compound 0.8 µM) of 0.982 and a relative viability (LOU-NH91; first compound 2.53 µM) of 1.02. It also gave a relative viability (201T; first compound 0.08 µM) of 1, a relative viability (201T; first compound 0.253 µM) of 1.02 and a relative viability (201T; first compound 0.8 µM) of 1.01. It also gave a relative viability (201T; first compound 2.53 µM) of 1.13, a relative viability (NCI-H2347; first compound 0.08 µM) of 0.982 and a relative viability (NCI-H2347; first compound 0.253 µM) of 0.833. For the same compound, the relative viability (NCI-H2347; first compound 0.8 µM) was 1.11, the relative viability (NCI-H2347; first compound 2.53 µM) was 0.969 and the relative viability (NCI-H2087; first compound 0.08 µM) was 1.2. The relative viability (NCI-H2087; first compound 0.253 µM) was 0.971, the relative viability (NCI-H2087; first compound 0.8 µM) was 1.07 and the relative viability (NCI-H2087; first compound 2.53 µM) was 0.914. It also gave a relative viability (NCI-H838; first compound 0.08 µM) of 1.02, a relative viability (NCI-H838; first compound 0.253 µM) of 0.957 and a relative viability (NCI-H838; first compound 0.8 µM) of 1. It also gave a relative viability (NCI-H838; first compound 2.53 µM) of 0.959, a relative viability (NCI-H441; first compound 0.08 µM) of 0.634 and a relative viability (NCI-H441; first compound 0.253 µM) of 0.552. The relative viability (NCI-H441; first compound 0.8 µM) was 0.633, the relative viability (NCI-H441; first compound 2.53 µM) was 0.535 and the relative viability (EMC-BAC-2; first compound 0.08 µM) was 0.895. For the same compound, the relative viability (EMC-BAC-2; first compound 0.253 µM) was 0.785, the relative viability (EMC-BAC-2; first compound 0.8 µM) was 0.823 and the relative viability (EMC-BAC-2; first compound 2.53 µM) was 0.905. The relative viability (NCI-H647; first compound 0.08 µM) was 1.12, the relative viability (NCI-H647; first compound 0.253 µM) was 1.14 and the relative viability (NCI-H647; first compound 0.8 µM) was 1.11. The relative viability (NCI-H647; first compound 2.53 µM) was 1.15, the relative viability (NCI-H650; first compound 0.08 µM) was 1 and the relative viability (NCI-H650; first compound 0.253 µM) was 0.676. It also gave a relative viability (NCI-H650; first compound 0.8 µM) of 1.02, a relative viability (NCI-H650; first compound 2.53 µM) of 0.881 and a relative viability (LCLC-103H; first compound 0.08 µM) of 1.09. It also gave a relative viability (LCLC-103H; first compound 0.253 µM) of 0.951, a relative viability (LCLC-103H; first compound 0.8 µM) of 1.06 and a relative viability (LCLC-103H; first compound 2.53 µM) of 1.2. The relative viability (NCI-H2126; first compound 0.08 µM) was 0.733, the relative viability (NCI-H2126; first compound 0.253 µM) was 0.625 and the relative viability (NCI-H2126; first compound 0.8 µM) was 0.745. The relative viability (NCI-H2126; first compound 2.53 µM) was 0.716, the relative viability (NCI-H1993; first compound 0.253 µM) was 0.838 and the relative viability (NCI-H1993; first compound 0.8 µM) was 0.75. The relative viability (NCI-H1993; first compound 2.53 µM) was 0.85, the relative viability (NCI-H727; first compound 0.08 µM) was 0.208 and the relative viability (NCI-H727; first compound 0.253 µM) was 0.322. For the same compound, the relative viability (NCI-H727; first compound 0.8 µM) was 0.248 and the relative viability (NCI-H727; first compound 2.53 µM) was 0.314.

Source: the supplement of paper PMC10307832
